According to the supplement of paper PMC11451515:

Experiments:
SEM cells [1] = assay: AUC of viability dose-response curve (% viability x log10 dose units); higher = less sensitive; conditions: 48 h
Summary of the method: (§1)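 Leukemia cells adapted to each medium were seeded in 1536-well plates (500 or 1000 cells/well) and given library compounds in DMSO for 48 h at 37°C. The 11 threefold doses spanned 47 μM to 0.79 nM, and CellTiter-Glo One luminescence was normalised per plate to DMSO and cell-free wells before four-parameter log-logistic fitting on log10 dose. Area under the curve was integrated with the trapezoidal rule, scaling curves above full viability and removing curves that failed quality control.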

P12-Ichikawa [2] = assay: as above; conditions: 48 h
Summary of the method: as §1

NOMO1 [3] = assay: as above; conditions: 48 h
Summary of the method: as §1

SEM cells [4] = assay: cell viability relative to DMSO control; higher = less cytotoxic; conditions: 48 h
Summary of the method: (§2)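 Viability is expressed as a percentage of DMSO wells within each plate, and cell-free wells serve as background. Seeding densities in the 1536-well plates (5 μl) were 500 cells/well for NOMO1 or SEM leukemia cells and 1000 cells/well for P12-Ichikawa. Each line was adapted for at least four passages in each medium. Library compounds in DMSO were pin-dosed at 47 μM to 0.79 nM (11 points, threefold), and CellTiter-Glo One luminescence was read after 48 h at 37°C.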

P12-Ichikawa [5] = assay: as above; conditions: 48 h
Summary of the method: as §2

NOMO1 [6] = assay: as above; conditions: HPLM + 10% dialyzed FBS, 48 h
Summary of the method: as §2

CCN1CCN(Cc2ccc(-c3cc4c(N[C@H](C)c5ccccc5)ncnc4[nH]3)cc2)CC1
AUC of viability dose-response curve
Conditions | NOMO1 [3] | P12-Ichikawa [2] | SEM cells [1]
HPLM + 10% dialyzed FBS | 439 | 448 | 384
RPMI 5 mM glucose + 10% FBS | 460 | 463 | 375
RPMI 5 mM glucose + 10% dialyzed FBS | 457 | 461 | 388

SEM cells [4], HPLM + 10% dialyzed FBS
Conditions | cell viability [%]
0.000781 µM | 130
0.00234 µM | 124
0.00702 µM | 125
0.0211 µM | 132
0.0632 µM | 116
0.19 µM | 116
0.569 µM | 109
1.71 µM | 98.5
5.12 µM | 74.7
15.4 µM | 51.1
46.1 µM | 8.14

COC1=C(OC)C(=O)C(C/C=C(\C)CC/C=C(\C)CC/C=C(\C)CC/C=C(\C)CC/C=C(\C)CC/C=C(\C)CC/C=C(\C)CC/C=C(\C)CC/C=C(\C)CCC=C(C)C)=C(C)C1=O
AUC of viability dose-response curve
Conditions | NOMO1 [3] | P12-Ichikawa [2] | SEM cells [1]
HPLM + 10% dialyzed FBS | 461 | 453 | 442
RPMI 5 mM glucose + 10% FBS | 453 | 435 | 469
RPMI 5 mM glucose + 10% dialyzed FBS | 466 | 461 | 456

cell viability [%], SEM cells [4]
Conditions | HPLM + 10% dialyzed FBS | RPMI 5 mM glucose + 10% dialyzed FBS
0.000781 µM | 104 | 104
0.00234 µM | 101 | 129
0.00702 µM | 97.5 | 120
0.0211 µM | 92.4 | 106
0.0632 µM | 129 | 112
0.19 µM | 110 | 124
0.569 µM | 60.3 | 56.4
1.71 µM | 53.3 | 43.4
5.12 µM | 138 | 123
15.4 µM | 128 | 126
46.1 µM | 124 | 120

CCC1=C2C=C(OC(=O)N3CCC(CC3)N4CCCCC4)C=CC2=NC\5=C1CN6C(=O)\C7=C(/C=C56)[C@@](O)(CC)C(=O)OC7
AUC of viability dose-response curve
Conditions | NOMO1 [3] | P12-Ichikawa [2] | SEM cells [1]
HPLM + 10% dialyzed FBS | 380 | 324 | 366
RPMI 5 mM glucose + 10% FBS | 380 | 313 | 356
RPMI 5 mM glucose + 10% dialyzed FBS | 380 | 326 | 353

SEM cells [4], RPMI 5 mM glucose + 10% FBS
Conditions | cell viability [%]
0.000781 µM | 110
0.00234 µM | 127
0.00702 µM | 104
0.0211 µM | 106
0.0632 µM | 49.5
0.19 µM | 104
0.569 µM | 107
1.71 µM | 65.2
5.12 µM | 15.4
15.4 µM | 13.1
46.1 µM | 9.69

O=C(NCc1ccccc1)[C@H](Cc1ccccc1)NC(=O)[C@H]1O[C@@H]1C(=O)NCCc1ccc(O)cc1
AUC of viability dose-response curve
Conditions | NOMO1 [3] | P12-Ichikawa [2] | SEM cells [1]
HPLM + 10% dialyzed FBS | 431 | 468 | 464
RPMI 5 mM glucose + 10% FBS | 459 | 461 | 463
RPMI 5 mM glucose + 10% dialyzed FBS | 425 | 463 | 453

CCN(CC)CCOC1=CC=C(NC2=NC=C3\C=C(/C(=O)N(C)C3=N2)C4=C(Cl)C=CC=C4Cl)C=C1
Conditions | AUC of viability dose-response curve | cell viability [%]
NOMO1 [3], HPLM + 10% dialyzed FBS | 343 | –
NOMO1 [3], RPMI 5 mM glucose + 10% FBS | 359 | –
NOMO1 [3], RPMI 5 mM glucose + 10% dialyzed FBS | 355 | –
NOMO1 [6], 0.000781 µM | – | 116
NOMO1 [6], 0.00234 µM | – | 138
NOMO1 [6], 0.00702 µM | – | 121
NOMO1 [6], 0.0211 µM | – | 115
NOMO1 [6], 0.0632 µM | – | 108
NOMO1 [6], 0.19 µM | – | 96.4
NOMO1 [6], 0.569 µM | – | 97.5
NOMO1 [6], 1.71 µM | – | 80.5
NOMO1 [6], 5.12 µM | – | 16.1
NOMO1 [6], 15.4 µM | – | 10.1
NOMO1 [6], 46.1 µM | – | 2.65
P12-Ichikawa [2], HPLM + 10% dialyzed FBS | 371 | –
P12-Ichikawa [2], RPMI 5 mM glucose + 10% FBS | 365 | –
P12-Ichikawa [2], RPMI 5 mM glucose + 10% dialyzed FBS | 367 | –

cell viability [%]
Conditions | HPLM + 10% dialyzed FBS | RPMI 5 mM glucose + 10% FBS | RPMI 5 mM glucose + 10% dialyzed FBS
P12-Ichikawa [5], 0.000781 µM | 107 | 122 | 118
P12-Ichikawa [5], 0.00234 µM | 114 | 120 | 124
P12-Ichikawa [5], 0.00702 µM | 109 | 118 | 122
P12-Ichikawa [5], 0.0211 µM | 84.8 | 85.2 | 94.6
P12-Ichikawa [5], 0.0632 µM | 111 | 109 | 109
P12-Ichikawa [5], 0.19 µM | 96.5 | 101 | 96.9
P12-Ichikawa [5], 0.569 µM | 99.6 | 113 | 111
P12-Ichikawa [5], 1.71 µM | 109 | 106 | 113
P12-Ichikawa [5], 5.12 µM | 21.8 | 13.3 | 12.1
P12-Ichikawa [5], 15.4 µM | 5.01 | 4.01 | 4.8
P12-Ichikawa [5], 46.1 µM | 4.01 | 6.43 | 6.66
SEM cells [4], 0.000781 µM | 94.9 | 78.3 | 92.5
SEM cells [4], 0.00234 µM | 101 | 67.6 | 102
SEM cells [4], 0.00702 µM | 105 | 74.7 | 106
SEM cells [4], 0.0211 µM | 74.5 | 52.1 | 68.3
SEM cells [4], 0.0632 µM | 67.9 | 48.6 | 76.1
SEM cells [4], 0.19 µM | 58.4 | 44.8 | 69.1
SEM cells [4], 0.569 µM | 56.8 | 38.2 | 61.1
SEM cells [4], 1.71 µM | 56 | 45.8 | 59.8
SEM cells [4], 5.12 µM | 10.9 | 11.7 | 13.5
SEM cells [4], 15.4 µM | 6.61 | 7.2 | 8.59
SEM cells [4], 46.1 µM | 4.15 | 2.88 | 3.75

CC(C)(Cc1ccc2ccccc2c1)NC[C@@H](O)COc1cccc(Cl)c1C#N
AUC of viability dose-response curve
Conditions | NOMO1 [3] | P12-Ichikawa [2] | SEM cells [1]
HPLM + 10% dialyzed FBS | 458 | 453 | 448
RPMI 5 mM glucose + 10% FBS | 455 | 449 | 466
RPMI 5 mM glucose + 10% dialyzed FBS | 451 | 451 | 438

cell viability [%]
Conditions | P12-Ichikawa [5] | SEM cells [4]
HPLM + 10% dialyzed FBS, 0.000781 µM | 123 | 128
HPLM + 10% dialyzed FBS, 0.00234 µM | 124 | 121
HPLM + 10% dialyzed FBS, 0.00702 µM | 126 | 125
HPLM + 10% dialyzed FBS, 0.0211 µM | 122 | 121
HPLM + 10% dialyzed FBS, 0.0632 µM | 121 | 124
HPLM + 10% dialyzed FBS, 0.19 µM | 120 | 123
HPLM + 10% dialyzed FBS, 0.569 µM | 123 | 119
HPLM + 10% dialyzed FBS, 1.71 µM | 116 | 120
HPLM + 10% dialyzed FBS, 5.12 µM | 123 | 108
HPLM + 10% dialyzed FBS, 15.4 µM | 117 | 96.7
HPLM + 10% dialyzed FBS, 46.1 µM | 10.7 | 65.7
RPMI 5 mM glucose + 10% FBS, 0.000781 µM | – | 127
RPMI 5 mM glucose + 10% FBS, 0.00234 µM | – | 113
RPMI 5 mM glucose + 10% FBS, 0.00702 µM | – | 120
RPMI 5 mM glucose + 10% FBS, 0.0211 µM | – | 116
RPMI 5 mM glucose + 10% FBS, 0.0632 µM | – | 124
RPMI 5 mM glucose + 10% FBS, 0.19 µM | – | 121
RPMI 5 mM glucose + 10% FBS, 0.569 µM | – | 115
RPMI 5 mM glucose + 10% FBS, 1.71 µM | – | 126
RPMI 5 mM glucose + 10% FBS, 5.12 µM | – | 86
RPMI 5 mM glucose + 10% FBS, 15.4 µM | – | 128
RPMI 5 mM glucose + 10% FBS, 46.1 µM | – | 62.8

Cl.O[C@@H](CNC[C@H](O)[C@H]1CCc2cc(F)ccc2O1)[C@@H]1CCc2cc(F)ccc2O1
AUC of viability dose-response curve
Conditions | NOMO1 [3] | P12-Ichikawa [2] | SEM cells [1]
HPLM + 10% dialyzed FBS | 439 | 465 | 450
RPMI 5 mM glucose + 10% FBS | 446 | 441 | 444
RPMI 5 mM glucose + 10% dialyzed FBS | 415 | 448 | 455

CCCN[S+](=O)([O-])Nc1ncnc(OCCOc2ncc(Br)cn2)c1-c1ccc(Br)cc1
AUC of viability dose-response curve
Conditions | NOMO1 [3] | P12-Ichikawa [2] | SEM cells [1]
HPLM + 10% dialyzed FBS | 442 | 457 | 470
RPMI 5 mM glucose + 10% FBS | 468 | 431 | 468
RPMI 5 mM glucose + 10% dialyzed FBS | 468 | 452 | 429

SEM cells [4], HPLM + 10% dialyzed FBS
Conditions | cell viability [%]
0.000781 µM | 125
0.00234 µM | 120
0.00702 µM | 123
0.0211 µM | 120
0.0632 µM | 123
0.19 µM | 137
0.569 µM | 123
1.71 µM | 123
5.12 µM | 124
15.4 µM | 131
46.1 µM | 88.8
